This is an account of results in PubChem BioAssay AID330 (DTP/NCI, 2004).

The test system of this assay is P388 leukemia ip, CD2F1 mice, survival T/C. Kind of assay: NCI In Vivo Anticancer Drug Screen. Data for tumor model P388 Leukemia (intraperitoneal) in CD2F1 (CDF1) mice. Conditions: endpoint: median survival time, higher = longer survival. A digest of the protocol: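 Mice carrying the transplanted tumor received test compound or vehicle. Survival was recorded in each group, and the value is the treated-group measurement divided by that of the vehicle-treated control group.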

[1] abbreviates: dose: 12.5 mg/kg/injection, schedule: Q01DX009 (ip), vehicle: water.
[2] abbreviates: dose: 25.0 mg/kg/injection, schedule: Q01DX009 (ip), vehicle: water.
Setting [3] is: dose: 50.0 mg/kg/injection, schedule: Q01DX009 (ip), vehicle: water.
Setting [4] is: dose: 100.0 mg/kg/injection, schedule: Q01DX009 (ip), vehicle: water.
Where [5] appears, read: dose: 200.0 mg/kg/injection, schedule: Q01DX009 (ip), vehicle: water.
The mark [6] stands for this setting: dose: 12.5 mg/kg/injection, schedule: Q01DX009 (ip), vehicle: Klucel (hydroxypropylcellulose) (HPC).
The mark [7] stands for this setting: dose: 25.0 mg/kg/injection, schedule: Q01DX009 (ip), vehicle: Klucel (hydroxypropylcellulose) (HPC).
[8] abbreviates: dose: 50.0 mg/kg/injection, schedule: Q01DX009 (ip), vehicle: Klucel (hydroxypropylcellulose) (HPC).
The mark [9] stands for this setting: dose: 60.0 mg/kg/injection, schedule: Q01DX005 (ip), vehicle: saline with Tween-80.
Where [10] appears, read: dose: 120.0 mg/kg/injection, schedule: Q01DX005 (ip), vehicle: saline with Tween-80.
The mark [11] stands for this setting: dose: 240.0 mg/kg/injection, schedule: Q01DX005 (ip), vehicle: saline with Tween-80.
The mark [12] stands for this setting: dose: 25.0 mg/kg/injection, schedule: Q01DX005 (ip), vehicle: saline with Tween-80.
[13] abbreviates: dose: 50.0 mg/kg/injection, schedule: Q01DX005 (ip), vehicle: saline with Tween-80.
Where [14] appears, read: dose: 50.0 mg/kg/injection, schedule: Q01DX009 (ip), vehicle: saline with Tween-80.
Setting [15] is: dose: 100.0 mg/kg/injection, schedule: Q01DX009 (ip), vehicle: saline with Tween-80.
Where [16] appears, read: dose: 200.0 mg/kg/injection, schedule: Q01DX009 (ip), vehicle: saline with Tween-80.
[17] abbreviates: dose: 100.0 mg/kg/injection, schedule: Q01DX009 (ip), vehicle: Klucel (hydroxypropylcellulose) (HPC).
Setting [18] is: dose: 200.0 mg/kg/injection, schedule: Q01DX009 (ip), vehicle: Klucel (hydroxypropylcellulose) (HPC).
Setting [19] is: dose: 100.0 mg/kg/injection, schedule: Q01DX005 (ip), vehicle: saline with Tween-80.
The mark [20] stands for this setting: dose: 50.0 mg/kg/injection, schedule: Q01DX005 (ip), vehicle: Klucel (hydroxypropylcellulose) (HPC).
Setting [21] is: dose: 100.0 mg/kg/injection, schedule: Q01DX005 (ip), vehicle: Klucel (hydroxypropylcellulose) (HPC).
[22] abbreviates: dose: 200.0 mg/kg/injection, schedule: Q01DX005 (ip), vehicle: Klucel (hydroxypropylcellulose) (HPC).

Where “and” joins values, the source holds several entries; their conditions need not be identical. Equal entries are not always repeated. Inconclusive results and toxic doses are left out.

Consider `O=S(=O)(Nc1ccc(NS(=O)(=O)c2ccccc2)cc1)c1ccccc1`, for which the T/C (dose: 50.0 mg/kg/injection, schedule: Q04DX003 (ip), vehicle: saline) was 100 % of control; the T/C (dose: 100.0 mg/kg/injection, schedule: Q04DX003 (ip), vehicle: saline) was 109 % of control; the T/C (dose: 200.0 mg/kg/injection, schedule: Q04DX003 (ip), vehicle: saline) is 100 % of control.
`O=C1C(Br)CCC1(c1ccccc1)c1ccccc1` (stereo not given): the T/C is, setting by setting: (dose: 100.0 mg/kg/injection, schedule: Q01DX001 (ip), vehicle: Klucel (hydroxypropylcellulose) (HPC)) 102 % of control; (dose: 200.0 mg/kg/injection, schedule: Q01DX001 (ip), vehicle: Klucel (hydroxypropylcellulose) (HPC)) 106 % of control; (dose: 400.0 mg/kg/injection, schedule: Q01DX001 (ip), vehicle: Klucel (hydroxypropylcellulose) (HPC)) 102 % of control.
For `COC1=CC23CCCN2CCc2cc4c(cc2C3C1O)OCO4` (stereo not given), the T/C is 103 % of control under setting [1]; 99 % of control under setting [2]; 104 % of control under setting [3]; 101 % of control (dose: 60.0 mg/kg/injection, schedule: Q01DX005 (ip), vehicle: Klucel (hydroxypropylcellulose) (HPC)); 96 % of control under setting [4]; 106 % of control (dose: 120.0 mg/kg/injection, schedule: Q01DX005 (ip), vehicle: Klucel (hydroxypropylcellulose) (HPC)). Further, the T/C is 99 % of control under setting [5] and 101 % of control (dose: 240.0 mg/kg/injection, schedule: Q01DX005 (ip), vehicle: Klucel (hydroxypropylcellulose) (HPC)).
`O=C(Nc1ccc2c(c1)Cc1cc(NC(=O)C34CC5CC(CC(C5)C3)C4)ccc1-2)C12CC3CC(CC(C3)C1)C2`: the T/C was 88 % of control (dose: 100.0 mg/kg/injection, schedule: Q04DX002 (ip), vehicle: saline with Tween-80); 89 % of control (dose: 200.0 mg/kg/injection, schedule: Q04DX002 (ip), vehicle: saline with Tween-80); 92 % of control (dose: 400.0 mg/kg/injection, schedule: Q04DX002 (ip), vehicle: saline with Tween-80).
For `Oc1cc(-c2cc3cccc[n+]3o2)cc(O)c1O`, the T/C is 100 % of control under setting [6], 99 % of control under setting [7] and 100 % of control under setting [8].
In the case of `C=CCSC(C)=O`, the T/C was 98 % of control (dose: 30.0 mg/kg/injection, schedule: Q01DX005 (ip), vehicle: saline with Tween-80); 100 % of control under setting [9]; 99 % of control under setting [10].
As to `CO/N=C1\N=C(C)C(=N)N1c1ccccc1`, the T/C was 104 % of control under setting [9], 99 % of control under setting [10] and 107 % of control under setting [11].
For the compound `Brc1ccc(-c2cnc3nc4[nH]c5ccccc5c4nn23)cc1`, the T/C is 101 % of control (dose: 12.5 mg/kg/injection, schedule: Q01DX005 (ip), vehicle: saline with Tween-80); 93 % of control under setting [12]; 89 % of control and 91 % of control under setting [13].
As to `CC(C)(C)N=C(CCN1CCCCC1)Nc1ccccc1Cl`, the T/C is 116 % of control under setting [14], 106 % of control under setting [15] and 102 % of control under setting [16].
On to `CC1C(c2ccccc2)OCCN1C=NC#N` (stereo not given), for which the T/C is 102 % of control under setting [8], 103 % of control under setting [17] and 103 % of control under setting [18].
As to `O=C1CN(CCN2CCCCC2)CC(=O)N2CCCCN12`, the T/C is 102 % of control under setting [13] and 107 % of control under setting [19].
In the case of `CN=C([O-])c1c(=O)o[nH][n+]1-c1ccccc1`, the T/C runs as follows: under setting [9], 95 % of control; under setting [10], 98 % of control; under setting [11], 94 % of control.
For `NNC(=O)C1CCN1C(c1ccccc1)c1ccccc1` (stereo not given), the T/C reads like this: under setting [6], 106 % of control; under setting [7], 102 % of control; under setting [8], 102 % of control; under setting [17], 95 % of control.
`COc1ccc2c(c1)n([O-])c1ccccc1[n+]2=O`: the T/C under setting [12] was 122 % of control; the T/C under setting [19] is 157 % of control and 172 % of control.
Regarding `CC(=O)C1(O)Cc2c(O)c3c(c(O)c2C(OC2CC(N)C(O)C(C)O2)C1C)C(=O)c1ccccc1C3=O` (stereo not given), the T/C was 100 % of control (dose: 0.6 mg/kg/injection, schedule: Q04DX003 (ip), vehicle: water); 108 % of control (dose: 1.2 mg/kg/injection, schedule: Q04DX003 (ip), vehicle: water); 108 % of control (dose: 2.4 mg/kg/injection, schedule: Q04DX003 (ip), vehicle: water); 106 % of control (dose: 4.8 mg/kg/injection, schedule: Q04DX003 (ip), vehicle: water); 118 % of control (dose: 9.6 mg/kg/injection, schedule: Q04DX003 (ip), vehicle: water).
Take `Cc1ccc2c(ccc(/C=C\c3cc(C)c4cccnc4c3O)[n+]2C)c1`: the T/C by setting is: (dose: 0.78 mg/kg/injection, schedule: Q01DX009 (ip), vehicle: saline with Tween-80) 124 % of control; (dose: 1.56 mg/kg/injection, schedule: Q01DX009 (ip), vehicle: saline with Tween-80) 122 % of control; (dose: 3.13 mg/kg/injection, schedule: Q01DX009 (ip), vehicle: saline with Tween-80) 121 % of control.
As to `Cc1ccc(N=C=C(c2ccccc2)c2ccccc2)cc1`, the T/C under setting [8] is 123 % of control and the T/C under setting [17] was 119 % of control.
With `CC(=O)OCc1cc[n+](C)cc1`, the T/C under setting [1] was 100 % of control; the T/C under setting [2] was 105 % of control; the T/C under setting [3] is 101 % of control; the T/C under setting [4] is 102 % of control; the T/C under setting [5] is 93 % of control; the T/C (dose: 400.0 mg/kg/injection, schedule: Q01DX009 (ip), vehicle: water) was 112 % of control.
For `CCC(c1ccc(OC)cc1)C(NCC(=O)N/N=C/c1ccc(N(C)C)cc1)c1ccc(OC)cc1` (stereo not given), the T/C (dose: 100.0 mg/kg/injection, schedule: Q01DX001 (ip), vehicle: saline with Tween-80) was 100 % of control; the T/C (dose: 200.0 mg/kg/injection, schedule: Q01DX001 (ip), vehicle: saline with Tween-80) is 100 % of control; the T/C (dose: 400.0 mg/kg/injection, schedule: Q01DX001 (ip), vehicle: saline with Tween-80) was 99 % of control.
Consider `CCOC(=O)C1=C(C(=O)c2ccc(C)cc2)C(c2ccc(Cl)cc2Cl)C(C(=O)c2ccc(C)cc2)=C(C(=O)OCC)N1`, for which the T/C is 89 % of control under setting [9] and 98 % of control under setting [10].
For `CC12OC3(C)c4ccccc4OP3(c3ccccc3)(Oc3ccccc31)O2` (stereo not given), the T/C runs as follows: under setting [14], 99 % of control; under setting [15], 97 % of control; under setting [16], 88 % of control.
For the compound `COc1ccn(C2OC(COC(=O)c3ccccc3)C(OC(=O)c3ccccc3)C2OC(=O)c2ccccc2)c(=O)n1` (stereo not given), the T/C is 97 % of control (dose: 25.0 mg/kg/injection, schedule: Q01DX005 (ip), vehicle: Klucel (hydroxypropylcellulose) (HPC)); 88 % of control and 93 % of control under setting [20]; 90 % of control under setting [21]; 92 % of control under setting [22].
Regarding `CC12CC(C(=O)O)C(C)(C1=O)C(c1ccccc1)=C2c1ccccc1` (stereo not given), the T/C reads like this: under setting [7], 92 % of control; under setting [8], 93 % of control; under setting [17], 97 % of control; under setting [18], 94 % of control.
Consider `c1ccc(-c2cnnc3c4ccccc4nn23)cc1`, for which the T/C is, setting by setting: under setting [20], 97 % of control; under setting [21], 96 % of control; under setting [22], 91 % of control.
Regarding `CCOC(=S)NS(=O)(=O)c1ccccc1`, the T/C reads like this: (dose: 6.25 mg/kg/injection, schedule: Q01DX009 (ip), vehicle: saline with Tween-80) 107 % of control; (dose: 12.5 mg/kg/injection, schedule: Q01DX009 (ip), vehicle: saline with Tween-80) 102 % of control; (dose: 25.0 mg/kg/injection, schedule: Q01DX009 (ip), vehicle: saline with Tween-80) 109 % of control; under setting [14], 116 % of control.
